# Where two headings read alike, the source gives them in different places.
# What was measured:
# Escherichia coli [1] = assay: Agar well diffusion assay, E. coli; format: cell-based; details: ratio of inhibition zone to that of positive control
# Method: (§1) According to the reported method, the OSe agents’ antimicrobial properties were estimated against Staphylococcus aureus (S. aureus), Escherichia coli (E. coli), and Candida albicans (C. albicans) microbial strains using the agar well diffusion assay. In addition, the MICs (in […]) were also recorded via the microdilution method following the reported procedure. Experimental details can be found in the Supplementary Materials Section S1 [16, 18].
# (§2) The promising anticancer activities manifested by the OSe compounds encourage us to further evaluate their respective antimicrobial activity against a panel of gram-negative bacteria (e.g., E. coli) and the gram-positive bacteria (e.g., S. aureus) as well as a fungal strain (C. albicans) using the method of agar diffusion. The clotrimazole antifungal and the ampicillin antibacterial drugs were used as the positive controls. […]
# (§3) 1.1.2. The antimicrobial activity
# (§4) The antimicrobial activities of the OSe compounds were evaluated against C. albicans yeast as well as E. coli gram-negative and S. aureus gram-positive bacteria employing the agar well diffusion assay [ 4 ] .
# (§5) Briefly, a concentration of 1 mM was prepared for each compound by dissolving in DMSO.
# (§6) Paper discs of standard size […] were sterilized in an autoclave and soaked in 9 µL of the test compounds, and placed in the Petri dishes, which in turn contain a nutrient media (agar 9 g, peptone 5 g, and beef extract 3 g) seeded with the dedicated strain. Incubation lasted for 13 h at 36 0C. Experiments were replicated three times and the antifungal clotrimazole and antibiotic ampicillin were used as standards. The % activity index for the complex was determined and depicted in table 2. […]
# Staphylococcus aureus [2] = assay: Agar well diffusion assay, S. aureus; format: cell-based; details: ratio of inhibition zone to that of positive control
# Method: as §1, §2, §3, §4, §5, §6
# Escherichia coli [3] = assay: MIC by microdilution method, E. coli; format: cell-based; details: read-out: MIC E. coli
# Method: as §1
# (§7) In general, C. Albicans fungus and S. aureus gram-positive bacteria were more sensitive than gram-negative bacteria toward the OSe compounds. […]
# (§8) Briefly, a concentration of 1 mM was prepared for each compound by dissolving in DMSO. […]
# (§9) Furthermore, the MICs (in µM) were determined by the microdilution method according to the
# 1.1.3. […]
# Staphylococcus aureus [4] = assay: MIC by microdilution method, S. aureus; format: cell-based; details: read-out: MIC S. aureus
# Method: as §1, §7, §8, §9
# 1.1.3. […]
# Escherichia coli [5] = assay: Agar well diffusion assay, E. coli; format: cell-based; details: read-out: E. coli ZID
# Staphylococcus aureus [6] = assay: Agar well diffusion assay, S. aureus; format: cell-based; details: read-out: S. aureus ZID
# Candida albicans [7] = assay: Agar well diffusion assay, C. albicans; format: cell-based; set-up: concentration or dose not given beside the values; details: ratio of inhibition zone to that of positive control
# Method: as §1, §2, §3, §4, §5, §6
# Candida albicans [8] = assay: MIC by microdilution method, C. albicans; format: cell-based; details: read-out: MIC C. Albicans
# Method: as §1, §7, §8, §9
# 1.1.3. […]
# Candida albicans [9] = assay: Agar well diffusion assay, C. albicans; format: cell-based; details: read-out: C. Albicans ZID
# MCF-7 cells = assay: MTT assay, antiproliferative activity, MCF-7 breast carcinoma cells; format: cell-based; details: Homo sapiens, MCF7, 24 h, read-out: MCF7 IC50
# Method: (§10) The anticancer activity of the OSe was performed using the MTT assay against liver (HepG2) and breast (MCF-7) carcinoma cells, as well as normal WI-38 cells following the reported method. Experimental details can be found in the Supplementary Materials Section S1.
# (§11) Accordingly, the anticancer properties of the OSe hybrids were assessed against two cancer cell lines, i.e., HepG2 and MCF-7 cells. Furthermore, their corresponding cytotoxicity was also estimated against the immortalized lung WI-38 fibroblasts employing the MTT assay. The Adriamycin cancer drug was used as the positive control.
# (§12) 1.1. The biological assays
# (§13) 1.1.1. The anticancer activity
# (§14) The breast adenocarcinoma (MCF-7), Hepatocellular carcinoma (HEPG-2), and normal fibroblast (WI-38) cells were obtained from ATCC via Holding company for biological products and vaccines (VACSERA), Cairo, Egypt. The reagents […] medium, MTT, DMSO, and fetal bovine serum was obtained from Sigma Aldrich. Dulbecco’s modified Eagle’s medium was used as the culture medium for the cells, and the cytotoxicity was evaluated using the reported MTT assay. Doxorubicin was used as the positive reference, and the IC50 values were obtained from the corresponding dose-response curve.
# (§15) This colorimetric assay is based on converting the yellow tetrazolium bromide (MTT) to a purple formazan derivative by mitochondrial succinate dehydrogenase in viable cells. Cell lines were cultured in […] medium with 10% fetal bovine serum. Antibiotics added were 100 units/ml penicillin and 100µg/ml streptomycin at 37 C in a 5% Co2 incubator. The cell lines were seeded in a 96-well plate at a density of 1.0x10^4 cells/well. at 37 C for 48 h under 5% […]
# (§16) Finally, dimethyl sulfoxide (DMSO) in the volume of 100 µl is added to each well to dissolve the purple formazan formed. […]
# HepG2 cells = assay: MTT assay, antiproliferative activity, HepG2 liver carcinoma cells; format: cell-based; details: Homo sapiens, HepG2, 24 h, read-out: HepG2 IC50
# Method: as §10
# as §11, with “control. The concentration inhibition, 50%, needed to kill half of the cells (IC50) was estimated from (concentration-response plots) and tabulated in Table 1.” for “control.”
# as §12, §13, §14, §15
# Finally, dimethyl sulfoxide (DMSO) in the volume of 100 µl is added to each well to dissolve the purple formazan formed. The colorimetric assay is measured and recorded at an absorbance of 570 nm using a plate reader (EXL 800, USA). […]
# WI-38 cells = assay: MTT assay, cytotoxicity against normal WI-38 fibroblasts; format: cell-based; details: Homo sapiens, WI-38, 24 h, read-out: WI38 IC50
# Method: as §10, §11, §12, §13, §14, §15, §16
# [10] = DPPH radical scavenging bioassay; details: for DPPH radical scavenging activity: 200 µL, 1 mM in MeOH, DPPH 400 µL, 30 min, 517 nm
# Description: (§17) The DPPH and ABTS in vitro bioassays were used to assess the OSe antioxidant activities following the reported method. Experimental details can be found in the Supplementary Materials Section S1.
# (§18) The redox modulation activities of the OSe compounds were extensively explored over the last decade owing to their chemopreventive and antioxidant potency. The latter is usually investigated by the ABTS and DPPH in vitro tests employing vitamin C as the positive control. The OSe compound’s magnitude estimated the antioxidant potential to decolorize the distinctive colors of the DPPH^. and ABTS^. radicals at 517 nm and 734 nm, respectively (Figure 2).
# (§19) Figure 2 The OSe compounds redox activities assessment using the ABTS and DPPH experiments. All tests are mean ± SD. ABTS experiment: absorbance was followed at 734 nm for OSe compounds (50 µL, 1 mM in MeOH) and ABTS solution (60 µL). DPPH experiment: Absorbance was monitored after 30 min at 517 nm for OSe compounds (200 µL, 1 mM in MeOH) and DPPH (400 µL). […]
# 1.1.3. The antioxidant activity
# 1.1.3.1. The DPPH bioassay
# The hydrogen atom or electron donation ability of the corresponding compounds was measured by estimating the bleaching of the purple color of a methanolic solution of DPPH [5]. This spectrophotometric assay uses stable DPPH. reagent. The sample was prepared by adding […] of the OSe compounds (1 mM in methanol) to […] DPPH in methanol. After 30 min of incubation in the dark, the absorbance was read against a blank at […]. Ascorbic acid (vitamin C) and ebselen were used as standard antioxidants (positive control). A blank sample was run without DPPH. A negative control sample was run using methanol instead of the sample. The radical scavenging activity was […]
# using the following equation:
# Inhibition%= (Ablank-Asample)/(Ablank)*100. […]
# [11] = ABTS radical scavenging bioassay; details: for ABTS radical scavenging activity: 50 µL, 1 mM in MeOH, ABTS solution 60 µL, 734 nm
# Description: as §17, §18, §19
# 1.1.3.2. The ABTS bioassay
# The antioxidant activity of the investigated compounds was assessed using 2,2’-azino-bis(3-ethylbenzothiazoline-6-sulphonic acid (ABTS) method. The radical cation derived from ABTS was prepared by the reaction of 60 mM ABTS solution with 0.3 M manganese dioxide solution in 0.1M phosphate buffer, pH 7. Then, the mixture was shaken, centrifuged, filtered, and the absorbance (Acontrol) of the resulting green-blue solution (ABTS radical solution) was measured at wavelength 734 nm. Then, […] of 1 mg/ml test compound in phosphate-buffered methanol was added. The absorbance (Atest) was measured. The reduction in color intensity was expressed as % inhibition. The % inhibition for each compound is calculated from the following equation
# Inhibition% = (Acontrol-Asample)/(Acontrol)*100
# Ascorbic acid (vitamin C) was used as a standard antioxidant (positive control). A blank sample was run without ABTS and using MeOH/phosphate buffer (1:1) instead of the sample. A negative control sample was run with MeOH/phosphate buffer (1:1) instead of a tested compound.
# [12] = inhibition zone diameter, disks (6 mm) soaked with 20 μM
# [13] = dose needed to decrease the absorbance by 50%
SMILES,E. coli IA% (activity index) (Escherichia coli [1]) [%],S. aureus IA% (activity index) (Staphylococcus aureus [2]) [%],C. Albicans IA% (activity index) (Candida albicans [7]) [%],IC50 (MCF-7 cells) [µM],IC50 (HepG2 cells) [µM],IC50 (WI-38 cells) [µM],DPPH radical scavenging activity [10] [%],ABTS radical scavenging activity [11] [%],melting point [°C],zone of inhibition at 20 µM (Escherichia coli [5]) [mm],zone of inhibition at 20 µM (Staphylococcus aureus [6]) [mm],zone of inhibition at 20 µM (Candida albicans [9]) [mm],also measured
"CC1(C)S[C@@H]2[C@H](NC(=O)[C@H](N)c3ccccc3)C(=O)N2[C@H]1C(=O)O [Ampicillin, reference compound]",100,100,,,,,,,,,,,MIC (Escherichia coli [3]; microdilution): 0.5 µM; MIC (Staphylococcus aureus [4]; microdilution): 1 µM; zone of inhibition at 20 µM (Escherichia coli [5]; [12]): 23 mm; zone of inhibition at 20 µM (Staphylococcus aureus [6]; [12]): 21 mm
"Clc1ccccc1C(c1ccccc1)(c1ccccc1)n1ccnc1 [Clotrimazole, reference compound]",,,100,,,,,,,,,,MIC (Candida albicans [8]; microdilution): 2 µM; zone of inhibition at 20 µM (Candida albicans [9]; [12]): 24 mm
"COC(=O)c1cc([Se]C#N)ccc1N [Compound 4, Methyl 2-amino-5-selenocyanatobenzoate]",60.9,76.2,75,23.4 ± 1.8,11.2 ± 1,52.6 ± 3.1,81,73,118 to 119,14,16,18,
"COC(=O)c1cc([Se][Se]c2ccc(N)c(C(=O)OC)c2)ccc1N [Compound 5, dimethyl 5,5′-diselanediylbis(2-aminobenzoate)]",82.6,85.7,87.5,9.89 ± 0.7,7.08 ± 0.6,35.9 ± 2.3,92,86,,19,18,21,
"CCOC(=O)C(C#N)=NNc1ccc([Se][Se]c2ccc(NN=C(C#N)C(=O)OCC)c(C(=O)OC)c2)cc1C(=O)OC [Compound 6, dimethyl 5,5′-diselanediylbis(2-(2-(1-cyano-2-ethoxy-2-oxoethylidene) hydrazinyl) benzoate)]",69.6,76.2,70.8,15.9 ± 1.2,16.2 ± 1.2,42.5 ± 2.6,85,69,105 to 106,16,16,17,
"COC(=O)c1cc([Se]C)ccc1N [Compound 14, methyl 2-amino-5-(methylselanyl) benzoate]",91.3,90.5,100,5.64 ± 0.3,3.57 ± 0.1,62.4 ± 3.6,96,91,,21,19,24,"MIC (Escherichia coli [3]): 0.5 µM; MIC (Staphylococcus aureus [4]): 2 µM; MIC (Candida albicans [8]): 2 µM; IC50 [10, 13]: 18.67 ± 0.12 µM; IC50 [11, 13]: 29.14 ± 0.2 µM"

# From publication PMC9775310, “Anticancer, Antimicrobial, and Antioxidant Activities of Organodiselenide-Tethered Methyl Anthranilates” (Biomolecules, 2022)
